Experimental data reported in patent publication US20240041042A1, “1-(PYRIDYL)-5-AZINYLPYRAZOLE DERIVATIVES, AND THEIR USE FOR CONTROL OF UNDESIRED PLANT GROWTH” (Bayer Aktiengesellschaft, priority 2020, published 2024).
Where two headings read alike, the source gives them in different places.

Assays:
Format in all cases: in vivo
[1] = tested on: Abutilon theophrasti (ABUTH); assay: Post-emergence herbicidal action against ABUTH; settings: visual rating about 3 weeks after treatment vs untreated controls (100% = plants have died, 0% = like control plants)
Method in brief: (§1)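 Values are percent visual activity (0% like control, 100% plants dead) after about 3 weeks in the greenhouse. Treatment: post-emergence spray at one-leaf stage, 600 l/ha spray volume, 0.5% additive, doses 320 g/ha or lower.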

[2] = tested on: Alopecurus myosuroides (ALOMY); assay: Post-emergence herbicidal action against ALOMY; settings: visual rating about 3 weeks after treatment vs untreated controls (100% = plants have died, 0% = like control plants)
Method in brief: as §1

[3] = tested on: Amaranthus retroflexus (AMARE); assay: Post-emergence herbicidal action against AMARE; settings: 320 g/ha, visual rating about 3 weeks after treatment
Method in brief: as §1

Avena fatua (AVEFA) = assay: Post-emergence herbicidal action against AVEFA; settings: visual rating about 3 weeks after treatment
Method in brief: as §1

[4] = tested on: Digitaria sanguinalis (DIGSA); assay: Post-emergence herbicidal action against DIGSA; settings: visual rating about 3 weeks after treatment
Method in brief: as §1

[5] = tested on: Echinochloa crus-galli (ECHCG); assay: Post-emergence herbicidal action against ECHCG
Method in brief: as §1

Lolium rigidum (LOLRI) = assay: Post-emergence herbicidal action against LOLRI
Method in brief: as §1

[6] = tested on: Matricaria inodora (MATIN); assay: Post-emergence herbicidal action against MATIN
Method in brief: as §1

Setaria viridis (SETVI) = assay: Post-emergence herbicidal action against SETVI
Method in brief: as §1

[7] = tested on: Verconica persica (VERPE); assay: Post-emergence herbicidal action against VERPE
Method in brief: as §1

Viola tricolor (VIOTR) = assay: Post-emergence herbicidal action against VIOTR
Method in brief: as §1

Oryza sativa (ORYSA) = settings: crop plant compatibility
Method in brief: (§2)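 Percent effect on the crop was judged by eye against untreated controls, where 0% means like control and 100% means dead plants. Plants had been sprayed post-emergence at the one-leaf stage and then kept under optimum greenhouse conditions for about 3 weeks.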

[8] = tested on: Triticum aestivum (TRZAS); settings: crop plant compatibility, effect vs untreated controls
Method in brief: as §2

Zea mays (ZEAMX) = settings: for Post-emergence action against ZEAMX in % (crop plant compatibility): 20 g/ha, effect in comparison to untreated controls; for Post-emergence action against ZEAMX in %: crop plant compatibility, effect vs untreated controls
Method in brief: as §2

[9] = tested on: Pharbitis purpurea (PHBPU); assay: Post-emergence herbicidal action against PHBPU
Method in brief: as §1

[10] = tested on: Polygonum convolvulus (POLCO); assay: Post-emergence herbicidal action against POLCO
Method in brief: as §1

[11] = 20 g/ha, effect vs untreated controls
[12] = 80 g/ha, effect in comparison to untreated controls
[13] = 320 g/ha, effect in comparison to untreated controls

Row | Post-emergence action against ORYSA in % (Oryza sativa (ORYSA); [11]) | Post-emergence action against TRZAS in % ([8]; 20 g/ha) | Post-emergence action against ZEAMX in % (crop plant compatibility) (Zea mays (ZEAMX)) | Post-emergence action against ORYSA in % (Oryza sativa (ORYSA); [12]) | Post-emergence action against ZEAMX in % (Zea mays (ZEAMX); 80 g/ha) | SMILES | Post-emergence action against ALOMY in % ([2]; 320 g/ha) | Post-emergence action against AMARE in % [3] | Post-emergence action against AVEFA in % (Avena fatua (AVEFA); 320 g/ha) | Post-emergence action against DIGSA in % ([4]; 320 g/ha) | Post-emergence action against ECHCG in % ([5]; dosage 80 g/ha) | Post-emergence action against ECHCG in % ([5]; dosage 320 g/ha) | Post-emergence action against LOLRI in % (Lolium rigidum (LOLRI); dosage 320 g/ha) | Post-emergence action against MATIN in % ([6]; dosage 320 g/ha) | Post-emergence action against SETVI in % (Setaria viridis (SETVI); dosage 320 g/ha) | Post-emergence action against VERPE in % ([7]; 320 g/ha, VERPE) | Post-emergence action against VERPE in % ([7]; dosage 80 g/ha) | Post-emergence action against VIOTR in % (Viola tricolor (VIOTR); 80 g/ha) | Post-emergence action against VIOTR in % (Viola tricolor (VIOTR); 320 g/ha) | Post-emergence action against PHBPU in % ([9]; dosage 320 g/ha) | Post-emergence action against POLCO in % ([10]; dosage 320 g/ha) | other results
1 | 0% | 0% | 20% | 0% | – | Cc1ncccc1-n1nc(OCC(=O)O)c(Cl)c1-c1cncc(F)c1 [II-42] | 90% | 90% | 90% | 80% | – | 90% | – | 80% | 90% | 90% | 80% | 80% | 90% | 90% | 80% | Post-emergence action against ALOMY in % ([2]; 80 g/ha): 80%; Post-emergence action against ORYSA in % (Oryza sativa (ORYSA); [13]): 0%; Post-emergence action against TRZAS in % ([8]; 80 g/ha): 20%
2 | 20% | 20% | – | – | – | O=C(O)COc1nn(-c2ccccn2)c(-c2ccc(F)nc2)c1Cl [Example I-266] | 90% | 90% | – | 90% | 80% | 90% | 90% | 90% | 80% | 90% | 80% | 80% | 90% | 90% | 90% | Post-emergence action against MATIN in % ([6]; dosage 80 g/ha): 80%; Post-emergence action against PHBPU in % ([9]; dosage 80 g/ha): 80%; Post-emergence action against POLCO in % ([10]; dosage 80 g/ha): 80%
3 | 10% | 10% | 10% | 20% | 10% | CCOC(=O)COc1nn(-c2ncccc2F)c(-c2ccnc(F)c2)c1Br [Example I-136] | 90% | – | – | 80% | – | 80% | 80% | 80% | 90% | – | – | 80% | 80% | 90% | – | Post-emergence action against ZEAMX in % (Zea mays (ZEAMX); 320 g/ha): 20%
4 | 0% | 0% | 10% | 10% | 10% | O=C(O)COc1nn(-c2ncccc2F)c(-c2cncc(F)c2)c1Cl [Example I-169] | – | – | 80% | 90% | 80% | 90% | 80% | 90% | 80% | 90% | 80% | – | 80% | 90% | 80% | Post-emergence action against MATIN in % ([6]; dosage 80 g/ha): 80%; Post-emergence action against PHBPU in % ([9]; dosage 80 g/ha): 80%; Post-emergence action against POLCO in % ([10]; dosage 80 g/ha): 80%

Further lines, the compound ahead of its results:

Row | SMILES | Post-emergence action against ORYSA in % (Oryza sativa (ORYSA); [11]) | Post-emergence action against TRZAS in % ([8]; 20 g/ha) | Post-emergence action against ZEAMX in % (crop plant compatibility) (Zea mays (ZEAMX)) | Post-emergence action against ORYSA in % (Oryza sativa (ORYSA); [12]) | Post-emergence action against ZEAMX in % (Zea mays (ZEAMX); 80 g/ha) | Post-emergence action against ALOMY in % ([2]; 320 g/ha) | Post-emergence action against AMARE in % [3] | Post-emergence action against AVEFA in % (Avena fatua (AVEFA); 320 g/ha) | Post-emergence action against DIGSA in % ([4]; 320 g/ha) | Post-emergence action against ECHCG in % ([5]; dosage 80 g/ha) | Post-emergence action against ECHCG in % ([5]; dosage 320 g/ha) | Post-emergence action against LOLRI in % (Lolium rigidum (LOLRI); dosage 320 g/ha) | Post-emergence action against MATIN in % ([6]; dosage 320 g/ha) | Post-emergence action against SETVI in % (Setaria viridis (SETVI); dosage 320 g/ha) | Post-emergence action against VERPE in % ([7]; 320 g/ha, VERPE) | Post-emergence action against VERPE in % ([7]; dosage 80 g/ha) | Post-emergence action against VIOTR in % (Viola tricolor (VIOTR); 80 g/ha) | Post-emergence action against VIOTR in % (Viola tricolor (VIOTR); 320 g/ha) | Post-emergence action against PHBPU in % ([9]; dosage 320 g/ha) | Post-emergence action against POLCO in % ([10]; dosage 320 g/ha) | other results
5 | N#CCOC(=O)COc1nn(-c2ncccc2F)c(-c2ccc(F)nc2)c1C1CC1 [Example I-294] | 10% | 10% | 20% | – | – | 90% | 80% | 90% | 90% | 80% | 90% | 90% | 90% | 90% | 90% | 90% | 90% | 90% | – | – | Post-emergence action against ABUTH in % ([1]; 320 g/ha): 80%; Post-emergence action against DIGSA in % ([4]; 80 g/ha): 80%; Post-emergence action against SETVI in % (Setaria viridis (SETVI); dosage 80 g/ha): 90%
6 | O=C(COc1nn(-c2ncccc2F)c(-c2ccc(F)nc2)c1C1CC1)OCC1CCCC1 [Example I-251] | 10% | 10% | 20% | – | 20% | 80% | 90% | 90% | 90% | 80% | 90% | 90% | 90% | 90% | 90% | 80% | – | 90% | – | – | Post-emergence action against DIGSA in % ([4]; 80 g/ha): 80%; Post-emergence action against LOLRI in % (Lolium rigidum (LOLRI); dosage 80 g/ha): 90%
7 | C[C@@H](Oc1nn(-c2ncccc2F)c(-c2ccnc(F)c2)c1Br)C(=O)O [Example I-140] | 0% | 10% | – | 0% | – | 100% | 90% | 90% | 80% | – | 80% | 90% | – | – | 90% | – | 90% | 90% | – | 90% | Post-emergence action against ABUTH in % ([1]; 320 g/ha): 80%; Post-emergence action against ORYSA in % (Oryza sativa (ORYSA); [13]): 10%
8 | COC(=O)CCOC(=O)COc1nn(-c2ncccc2F)c(-c2ccc(F)nc2)c1C1CC1 [Example I-383] | – | 20% | 10% | – | 20% | 90% | 80% | 80% | 90% | 80% | 90% | 90% | 80% | 80% | 90% | 80% | 80% | 90% | – | – | Post-emergence action against AVEFA in % (Avena fatua (AVEFA); 80 g/ha): 80%; Post-emergence action against DIGSA in % ([4]; 80 g/ha): 80%; Post-emergence action against LOLRI in % (Lolium rigidum (LOLRI); dosage 80 g/ha): 80%; Post-emergence action against SETVI in % (Setaria viridis (SETVI); dosage 80 g/ha): 80%
9 | COC(=O)CCOC(=O)COc1nn(-c2cccnc2C)c(-c2cncc(F)c2)c1Br [II-41] | 0% | 0% | 0% | 0% | 0% | 90% | 80% | 90% | 80% | – | 90% | – | 80% | 90% | 90% | 90% | 80% | 90% | 90% | – | Post-emergence action against ABUTH in % ([1]; 320 g/ha): 80%; Post-emergence action against PHBPU in % ([9]; dosage 80 g/ha): 80%; Post-emergence action against ORYSA in % (Oryza sativa (ORYSA); [13]): 0%; Post-emergence action against TRZAS in % ([8]; 80 g/ha): 0%
10 | O=C(COc1nn(-c2ncccc2F)c(-c2ccc(F)nc2)c1C1CC1)ON=C1CCCC1 [Example I-380] | 0% | 20% | 0% | 10% | 20% | 90% | – | 90% | 90% | 80% | 90% | 90% | – | 90% | 90% | 80% | 90% | 90% | – | 80% | Post-emergence action against ABUTH in % ([1]; 80 g/ha): 80%; Post-emergence action against ABUTH in % ([1]; 320 g/ha): 90%; Post-emergence action against AVEFA in % (Avena fatua (AVEFA); 80 g/ha): 90%; Post-emergence action against DIGSA in % ([4]; 80 g/ha): 80%; Post-emergence action against LOLRI in % (Lolium rigidum (LOLRI); dosage 80 g/ha): 90%; Post-emergence action against SETVI in % (Setaria viridis (SETVI); dosage 80 g/ha): 80%
